Experimental data from patent USRE47141E1, “Methods of treating fibrosis, cancer and vascular injuries” (EWHA University—Industry Collaboration Foundation, priority 2010, dated 2018).

How the values were obtained:
4T1 cells = experiment: Cell growth study (SRB assay), 4T1; assay type: cell-based; details: 0.2% serum medium, four days
Method: Either 4T1 cells or MCF10A cells were seeded in 96-well plate at 5×10^3 cells per well. […] After incubation for four days, cell viability was determined by SRB assay.

ALK4 = ALK4 (Homo sapiens (Human), UniProt P36896); experiment: Cell-free assay for inhibition of ALK4 kinase phosphorylation; assay type: biochemical
Method: ALK5 protein was expressed in Sf9 insect cells as human recombinant GST-fusion protein using the baculovirus expression system. Expressed protein was purified by affinity chromatography using GSH-agarose (Sigma-Aldrich). Kinase assay was performed in 96-well FlashPlates™ from Perkin Elmer (Boston, Mass., USA) in a 50 μL reaction volume. The reaction cocktail was pipetted in four steps in the following order: 20 μL of assay buffer (standard buffer), 5 μL of ATP solution in H2O, 5 μL of each test compounds of formula (I) in 10% DMSO, 10 μL of GSK3 (14-27) (200 ng)/10 μL of ALK5 solution (1 ng) (premixed). The reaction cocktail contained 60 mM HEPES-NaOH, pH 7.5, 3 mM MgCl2, 3 mM MnCl2, […], 1.2 mM DTT, 50 μg/mL PEG20000, 1 μM [γ-^33P]-ATP (approximately 2.5×10^5 cpm per well), 200 ng/10 μL GSK3 (14-27), and 1 ng/10 μL ALK5. The reaction cocktail was incubated at 30° C. for 60 min. […] Incorporation of ^33Pi (counting of “cpm”) was determined with a microplate scintillation counter (Microbeta, Wallac).
Inhibition of the ALK4 kinase phosphorylation by test compounds of formula (I) can be determined in a similar manner to that described above for ALK5 inhibition except that GST-tagged ALK4 (Invitrogen Corporation) and RBER-CHKtide are used in place of the GST-tagged ALK5 and GSK3 (14-27).

MEK1 wt = MEK1 wt (Homo sapiens (Human), UniProt Q02750); experiment: Kinase selectivity profiling; assay type: biochemical
Method: (§1) Kinase assays were performed in 96-well FlashPlates™ from Perkin Elmer in a […]. […] The reaction cocktail contained 70 mM HEPES-NaOH, pH 7.5, 3 mM MnCl2, 3 μM Na3VO4, 1.2 mM DTT, 1 μM [γ-^33P]-ATP (approximately 6×10^5 cpm per well), protein kinase (variable amounts), and substrate (variable amounts). The reaction cocktails were incubated at 30° C. for 60 min. The reaction was stopped with 50 μL of 2% (v/v) H3PO4, and plates were aspirated and washed two times with 200 μL 0.9% (w/v) NaCl. ALL assays were performed with a BeckmanCoulter Biomek 2000/SL robotic system. Incorporation of ^33Pi (counting of “cpm”) was determined with a microplate scintillation counter.

VEGF-R1 = VEGF-R1 (Homo sapiens (Human), UniProt P17948); experiment: Kinase selectivity profiling; assay type: biochemical
Method: as §1

PDGFRα wt = PDGFRα wt (Homo sapiens (Human), UniProt P16234); experiment: Kinase selectivity profiling; assay type: biochemical
Sequence of PDGFRα wt (P16234 24-1089): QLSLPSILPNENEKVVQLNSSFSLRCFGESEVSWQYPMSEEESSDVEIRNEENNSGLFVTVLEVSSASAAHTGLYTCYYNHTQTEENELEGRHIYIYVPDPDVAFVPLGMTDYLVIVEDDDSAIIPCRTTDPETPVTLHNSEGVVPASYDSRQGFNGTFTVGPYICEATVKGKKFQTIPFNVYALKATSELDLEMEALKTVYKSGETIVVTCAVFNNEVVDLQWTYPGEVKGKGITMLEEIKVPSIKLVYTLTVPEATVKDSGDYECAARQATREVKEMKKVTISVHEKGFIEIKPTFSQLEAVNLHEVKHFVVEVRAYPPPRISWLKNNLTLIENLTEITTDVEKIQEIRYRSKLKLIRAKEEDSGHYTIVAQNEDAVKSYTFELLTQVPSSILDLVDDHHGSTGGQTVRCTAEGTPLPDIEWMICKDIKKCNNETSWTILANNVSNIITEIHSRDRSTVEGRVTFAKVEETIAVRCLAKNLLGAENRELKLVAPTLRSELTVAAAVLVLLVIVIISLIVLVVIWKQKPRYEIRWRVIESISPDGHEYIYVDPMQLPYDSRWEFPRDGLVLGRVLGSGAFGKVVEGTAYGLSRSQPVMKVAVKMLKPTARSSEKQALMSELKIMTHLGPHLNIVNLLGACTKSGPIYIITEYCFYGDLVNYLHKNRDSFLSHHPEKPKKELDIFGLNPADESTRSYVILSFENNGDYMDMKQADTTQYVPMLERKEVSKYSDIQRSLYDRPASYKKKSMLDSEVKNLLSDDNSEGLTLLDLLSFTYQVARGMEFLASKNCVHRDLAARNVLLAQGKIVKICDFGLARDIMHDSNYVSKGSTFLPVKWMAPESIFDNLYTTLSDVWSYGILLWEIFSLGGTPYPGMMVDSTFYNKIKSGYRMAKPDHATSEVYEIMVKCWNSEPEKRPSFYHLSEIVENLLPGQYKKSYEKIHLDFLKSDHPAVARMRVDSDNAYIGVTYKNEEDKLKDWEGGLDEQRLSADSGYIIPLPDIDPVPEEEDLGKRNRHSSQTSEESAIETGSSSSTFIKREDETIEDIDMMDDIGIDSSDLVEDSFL
Method: as §1

PAK1 = PAK1 (Homo sapiens (Human), UniProt Q13153); experiment: Kinase selectivity profiling; assay type: biochemical
Sequence of PAK1 (Q13153 whole entry): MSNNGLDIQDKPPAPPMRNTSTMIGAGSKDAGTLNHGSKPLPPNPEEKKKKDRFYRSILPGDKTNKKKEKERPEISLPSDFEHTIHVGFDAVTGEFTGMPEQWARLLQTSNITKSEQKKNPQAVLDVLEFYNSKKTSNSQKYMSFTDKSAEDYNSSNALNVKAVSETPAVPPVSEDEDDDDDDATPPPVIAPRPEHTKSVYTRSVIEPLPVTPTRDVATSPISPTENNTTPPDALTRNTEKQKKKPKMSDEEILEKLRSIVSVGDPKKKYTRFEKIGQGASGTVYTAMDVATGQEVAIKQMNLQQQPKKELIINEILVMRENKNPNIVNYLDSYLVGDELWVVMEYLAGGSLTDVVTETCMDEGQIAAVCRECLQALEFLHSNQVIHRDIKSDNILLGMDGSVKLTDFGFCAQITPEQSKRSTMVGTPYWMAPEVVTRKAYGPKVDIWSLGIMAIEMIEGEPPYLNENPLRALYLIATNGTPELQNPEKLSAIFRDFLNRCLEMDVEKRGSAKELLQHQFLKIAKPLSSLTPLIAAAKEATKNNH
Method: as §1

CHK1 = CHK1 (Homo sapiens (Human), UniProt O14757); experiment: Kinase selectivity profiling; assay type: biochemical
Method: as §1

MET wt = MET wt (Homo sapiens (Human), UniProt P08581); experiment: Kinase selectivity profiling; assay type: biochemical
Method: as §1

ALK1 = ALK1 (Homo sapiens (Human), UniProt P37023); experiment: Kinase selectivity profiling; assay type: biochemical
Sequence of ALK1 (P37023 22-503, species assumed): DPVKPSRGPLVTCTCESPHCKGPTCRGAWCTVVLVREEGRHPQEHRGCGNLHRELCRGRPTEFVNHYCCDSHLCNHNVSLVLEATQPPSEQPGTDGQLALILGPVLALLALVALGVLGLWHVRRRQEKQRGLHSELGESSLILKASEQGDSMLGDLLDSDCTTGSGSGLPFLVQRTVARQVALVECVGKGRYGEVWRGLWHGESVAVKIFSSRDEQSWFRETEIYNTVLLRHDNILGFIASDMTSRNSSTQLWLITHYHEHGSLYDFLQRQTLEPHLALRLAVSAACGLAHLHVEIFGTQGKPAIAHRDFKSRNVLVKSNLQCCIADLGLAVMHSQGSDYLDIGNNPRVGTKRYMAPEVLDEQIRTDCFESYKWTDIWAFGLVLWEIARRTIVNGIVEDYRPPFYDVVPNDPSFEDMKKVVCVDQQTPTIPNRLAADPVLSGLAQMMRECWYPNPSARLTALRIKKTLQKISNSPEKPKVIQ
Method: as §1

CDK1/CycA = CDK1/CycA (Homo sapiens (Human), UniProt P06493); experiment: Kinase selectivity profiling; assay type: biochemical
Method: as §1

MST1 = MST1 (Homo sapiens (Human), UniProt Q13043); experiment: Kinase selectivity profiling; assay type: biochemical
Method: as §1

ALK2 = ALK2 (Homo sapiens (Human), UniProt Q04771); experiment: Kinase selectivity profiling; assay type: biochemical
Method: as §1

EGF-R wt = EGF-R wt (Homo sapiens (Human), UniProt P00533); experiment: Kinase selectivity profiling; assay type: biochemical
Method: as §1

ERK1 = ERK1 (Homo sapiens (Human), UniProt P27361); experiment: Kinase selectivity profiling; assay type: biochemical
Sequence of ERK1 (P27361 whole entry, species assumed): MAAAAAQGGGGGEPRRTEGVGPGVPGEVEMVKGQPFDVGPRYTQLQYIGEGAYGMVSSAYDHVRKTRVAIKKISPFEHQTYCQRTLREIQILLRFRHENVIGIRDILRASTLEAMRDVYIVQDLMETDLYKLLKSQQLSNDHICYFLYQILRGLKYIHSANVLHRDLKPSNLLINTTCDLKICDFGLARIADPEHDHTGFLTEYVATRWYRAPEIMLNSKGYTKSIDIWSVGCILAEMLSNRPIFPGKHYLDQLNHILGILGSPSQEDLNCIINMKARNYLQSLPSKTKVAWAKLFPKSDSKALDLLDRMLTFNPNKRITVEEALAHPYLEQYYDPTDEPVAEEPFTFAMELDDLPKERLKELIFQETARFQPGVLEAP
Method: as §1

PKA = PKA (Homo sapiens (Human), UniProt P17612); experiment: Kinase selectivity profiling; assay type: biochemical
Method: as §1

GSK3α = GSK3α (Homo sapiens (Human), UniProt P49840); experiment: Kinase selectivity profiling; assay type: biochemical
Sequence of GSK3α (P49840 whole entry, species assumed): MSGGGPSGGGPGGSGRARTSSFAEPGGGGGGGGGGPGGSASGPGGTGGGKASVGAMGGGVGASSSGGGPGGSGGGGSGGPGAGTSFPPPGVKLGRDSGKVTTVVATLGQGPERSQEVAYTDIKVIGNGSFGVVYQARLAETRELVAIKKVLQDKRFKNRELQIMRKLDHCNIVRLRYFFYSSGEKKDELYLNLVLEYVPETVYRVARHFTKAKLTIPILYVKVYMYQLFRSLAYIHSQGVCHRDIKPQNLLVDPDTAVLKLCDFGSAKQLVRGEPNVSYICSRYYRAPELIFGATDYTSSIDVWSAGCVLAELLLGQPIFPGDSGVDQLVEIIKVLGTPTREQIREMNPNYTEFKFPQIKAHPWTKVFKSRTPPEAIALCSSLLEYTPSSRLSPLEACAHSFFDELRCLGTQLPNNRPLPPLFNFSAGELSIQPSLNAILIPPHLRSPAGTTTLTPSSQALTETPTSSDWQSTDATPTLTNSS
Method: as §1

STK23 = STK23 (Homo sapiens (Human), UniProt Q9UPE1); experiment: Kinase selectivity profiling; assay type: biochemical
Method: as §1

ALK3 = ALK3 (Homo sapiens (Human), UniProt P36894); experiment: Kinase selectivity profiling; assay type: biochemical
Method: as §1

RPS6KA1 = RPS6KA1 (Homo sapiens (Human), UniProt Q15418); experiment: Kinase selectivity profiling; assay type: biochemical
Sequence of RPS6KA1 (Q15418 whole entry, species assumed): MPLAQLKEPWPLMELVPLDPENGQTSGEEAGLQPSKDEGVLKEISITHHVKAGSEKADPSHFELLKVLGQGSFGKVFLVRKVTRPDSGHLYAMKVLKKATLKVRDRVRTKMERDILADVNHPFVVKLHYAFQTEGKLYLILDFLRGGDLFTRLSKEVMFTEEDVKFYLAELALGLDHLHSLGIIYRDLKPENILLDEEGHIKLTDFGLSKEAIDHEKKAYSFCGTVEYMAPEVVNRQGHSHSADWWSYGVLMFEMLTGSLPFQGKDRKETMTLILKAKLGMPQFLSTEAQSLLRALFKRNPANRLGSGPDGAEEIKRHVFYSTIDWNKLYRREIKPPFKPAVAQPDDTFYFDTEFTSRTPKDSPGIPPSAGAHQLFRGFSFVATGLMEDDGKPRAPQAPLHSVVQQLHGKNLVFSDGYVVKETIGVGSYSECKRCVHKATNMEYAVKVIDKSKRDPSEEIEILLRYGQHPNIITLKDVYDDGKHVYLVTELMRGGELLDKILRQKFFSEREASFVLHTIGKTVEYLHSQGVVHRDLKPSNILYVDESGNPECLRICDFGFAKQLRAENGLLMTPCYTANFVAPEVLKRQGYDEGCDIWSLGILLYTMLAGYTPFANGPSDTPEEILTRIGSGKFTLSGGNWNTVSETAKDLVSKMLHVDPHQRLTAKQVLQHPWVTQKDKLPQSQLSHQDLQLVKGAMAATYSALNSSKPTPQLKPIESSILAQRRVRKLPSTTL
Method: as §1

PDGFRβ = PDGFRβ (Homo sapiens (Human), UniProt P09619); experiment: Kinase selectivity profiling; assay type: biochemical
Method: as §1

ROCK1 = ROCK1 (Homo sapiens (Human), UniProt Q13464); experiment: Kinase selectivity profiling; assay type: biochemical
Method: as §1

PKCα = PKCα (Homo sapiens (Human), UniProt P17252); experiment: Kinase selectivity profiling; assay type: biochemical
Method: as §1

AKT1 = AKT1 (Homo sapiens (Human), UniProt P31749); experiment: Kinase selectivity profiling; assay type: biochemical
Sequence of AKT1 (P31749 whole entry, species assumed): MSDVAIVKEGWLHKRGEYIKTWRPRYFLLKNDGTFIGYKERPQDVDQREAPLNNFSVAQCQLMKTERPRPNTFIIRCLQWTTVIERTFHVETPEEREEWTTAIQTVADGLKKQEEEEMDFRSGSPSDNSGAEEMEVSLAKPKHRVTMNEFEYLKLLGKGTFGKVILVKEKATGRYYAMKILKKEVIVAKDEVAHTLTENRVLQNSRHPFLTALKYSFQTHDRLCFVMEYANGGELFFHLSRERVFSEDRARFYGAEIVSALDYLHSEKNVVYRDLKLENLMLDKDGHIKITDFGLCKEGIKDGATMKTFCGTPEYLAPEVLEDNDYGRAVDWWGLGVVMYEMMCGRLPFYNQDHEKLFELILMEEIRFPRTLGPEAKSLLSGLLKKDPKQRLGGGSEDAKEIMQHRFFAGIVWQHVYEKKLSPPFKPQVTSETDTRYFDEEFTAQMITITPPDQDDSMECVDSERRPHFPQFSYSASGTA
Method: as §1

[1] = read-out: % inhibition at 1 μM, 1 μM
[2] = read-out: % inhibition at 10 μM, 10 μM

Cc1cccc(-c2[nH]c(CNc3ccccc3F)nc2-c2ccc3ncnn3c2)n1 [Example 2, N-((4-([1,2,4]triazolo[1,5-a]pyridin-6-yl)-5-(6-methylpyridin-2-yl)-1H-imidazol-2-yl)methyl)-2-fluoroaniline]
4T1 cell growth (4T1 cells): no effect
IC50 (ALK4): 17.3 nM
inhibition at 1 µM (MEK1 wt; [1]): 14%
inhibition at 10 µM (MEK1 wt; [2]): 47%
IC50 (VEGF-R1): 391 nM
inhibition at 1 µM (PDGFRα wt; [1]): 53%
inhibition at 10 µM (PDGFRα wt; [2]): 91%
inhibition at 1 µM (PAK1; [1]): -7%
inhibition at 10 µM (PAK1; [2]): -3%
inhibition at 1 µM (CHK1; [1]): -2%
inhibition at 10 µM (CHK1; [2]): 5%
inhibition at 1 µM (MET wt; [1]): -5%
inhibition at 10 µM (MET wt; [2]): 12%
inhibition at 1 µM (ALK1; [1]): 20%
inhibition at 10 µM (ALK1; [2]): 66%
inhibition at 1 µM (CDK1/CycA; [1]): 5%
inhibition at 10 µM (CDK1/CycA; [2]): 2%
inhibition at 1 µM (MST1; [1]): -7%
inhibition at 10 µM (MST1; [2]): 3%
inhibition at 1 µM (ALK2; [1]): 17%
inhibition at 10 µM (ALK2; [2]): 71%
inhibition at 1 µM (EGF-R wt; [1]): -8%
inhibition at 10 µM (EGF-R wt; [2]): 43%
inhibition at 1 µM (ERK1; [1]): 17%
inhibition at 10 µM (ERK1; [2]): 66%
inhibition at 1 µM (PKA; [1]): -7%
inhibition at 10 µM (PKA; [2]): 18%
inhibition at 1 µM (GSK3α; [1]): 10%
inhibition at 10 µM (GSK3α; [2]): 15%
inhibition at 1 µM (STK23; [1]): -4%
inhibition at 10 µM (STK23; [2]): -1%
inhibition at 1 µM (ALK3; [1]): -6%
inhibition at 10 µM (ALK3; [2]): 27%
inhibition at 1 µM (RPS6KA1; [1]): 6%
inhibition at 10 µM (RPS6KA1; [2]): 14%
inhibition at 1 µM (PDGFRβ; [1]): 47%
inhibition at 10 µM (PDGFRβ; [2]): 87%
inhibition at 1 µM (ROCK1; [1]): 3%
inhibition at 10 µM (ROCK1; [2]): 9%
inhibition at 1 µM (PKCα; [1]): -9%
inhibition at 10 µM (PKCα; [2]): 4%
inhibition at 1 µM (AKT1; [1]): 0%
inhibition at 10 µM (AKT1; [2]): 3%
